Literature values as cited in patent publication US20080181955A1, “Natural dietary supplement and method for enhancing human libido” (priority 2007, published 2008).

Experiments:
[1] = oral
[2] = system: human endothelial NO synthase; details: polyphenolic constituents of red wine
nitric oxide (NO) = details: resveratrol alone
PDE-5 = PDE-5 (Homo sapiens, UniProt O76074); details: resveratrol alone

Row | SMILES | eNOS expression [2] | further results
1 | CCCc1nn(C)c2c(=O)[nH]c(-c3cc(S(=O)(=O)N4CCN(C)CC4)ccc3OCC)nc12 [Sildenafil, sildenafil] |  | half-life [1]: about 4 hours
2 | CN1CC(=O)N2[C@H](c3ccc4c(c3)OCO4)c3[nH]c4ccccc4c3C[C@@H]2C1=O [Tadalafil, tadalafil] |  | half-life [1]: about 17.5 hours
3 | O=C(O)c1ccccc1 [benzoic acid] | enhanced eNOS expression moderately | 
4 | O=C(O)/C=C/c1ccc(O)c(O)c1 [caffeic acid] | enhanced eNOS expression moderately | 
5 | O=C(O)/C=C/c1ccc(O)cc1 [p-coumaric acid] | enhanced eNOS expression moderately | 
6 | Oc1ccc(C=Cc2cc(O)cc(O)c2)cc1 [resveratrol] |  | release of NO (nitric oxide (NO)): releases NO; effect on PDE-5 (PDE-5): no recognizable effect on PDE-5
7 | Oc1ccc(/C=C/c2cc(O)cc(O)c2)cc1 [trans-resveratrol] | most efficacious stimulator of eNOS expression | 
8 | COc1cc(C(=O)O)ccc1O [vanilla acid] | enhanced eNOS expression moderately | 
